Data published in patent US20010047099A1, “4-aminopicolinates and their use as herbicides” (priority 2000, published 2001).

Key:
Format in all cases: in vivo
[1] = test system: wild buckwheat (Polygonum convolvulus); assay: Postemergence herbicidal activity; conditions: Table 1, visual, after 2 weeks
Description: (§1) Seeds of the desired test plant species were planted in Grace-Sierra MetroMix® 306 planting mixture, which typically has a pH of 6.0 to 6.8 and an organic matter content of about 30 percent, in plastic pots with a surface area of 64 square centimeters. When required to ensure good germination and healthy plants, a fungicide treatment and/or other chemical or physical treatment was applied. The plants were grown for 7-21 days in a greenhouse with an approximate 15 hr photoperiod which was maintained at about 23-29° C. during the day and 22-28° C. during the night. Nutrients and water were added on a regular basis and supplemental lighting was provided with overhead metal halide 1000-Watt lamps as necessary. The plants were employed for testing when they reached the first or second true leaf stage.
(§2) A weighed amount, determined by the highest rate to be tested, of each test compound was placed in a 20 mL glass vial and was dissolved in 4 mL of a 97:3 v/v (volume/volume) mixture of acetone and dimethyl sulfoxide (DMSO) to obtain concentrated stock solutions. […] The concentrated stock solutions obtained were diluted with an aqueous mixture containing acetone, water, isopropyl alcohol, DMSO, Atplus 411F crop oil concentrate, and Triton X-155 surfactant in a 48.5:39:10:1.5:1.0:0.02 v/v ratio to obtain spray solutions of known concentration. The solutions containing the highest concentration to be tested were prepared by diluting 2 mL aliquots of the stock solution with 13 mL of the mixture and lower concentrations were prepared by serial dilution of the stock solution. Approximately 1.5 mL aliquots of each solution of known concentration were sprayed evenly onto each of the test plant pots using a DeVilbiss atomizer driven by compressed air pressure of 2 to 4 psi ([…]) to obtain thorough coverage of each plant. Control plants were sprayed in the same manner with the aqueous mixture. In this test an application rate of 1 ppm results in the application of approximately 1 g/Ha.
(§3) The treated plants and control plants were placed in a greenhouse as described above and watered by sub-irrigation to prevent wash-off of the test compounds. After 2 weeks the condition of the test plants as compared with that of the untreated plants was determined visually and scored on a scale of 0 to 100 percent where 0 corresponds to no injury and 100 corresponds to complete kill.

[2] = test system: chickweed (Stellaria media); assay: Postemergence herbicidal activity; conditions: Table 1, visual, after 2 weeks
Description: as §1, §2, §3

[3] = test system: cocklebur (Xanthium strumarium); assay: Postemergence herbicidal activity; conditions: Table 1, visual, after 2 weeks
Description: as §1, §2, §3

[4] = test system: pigweed (Amaranthus retroflexus); assay: Preemergence herbicidal activity; conditions: Table 6 (headed Post-emergent; text: preemergence), after 3 weeks; for pest or weed control at 280 ppm: rate 280 ppm
Description: (§4) Seeds of the desired test plant species were planted in a soil matrix prepared by mixing a loam soil (43 percent silt, 19 percent clay, and 38 percent sand, with a pH of about 8.1 and an organic matter content of bout 1.5 percent) and sand in a 70 to 30 ratio. The soil matrix was contained in plastic pots with a surface area of 113 square centimeters. When required to ensure good germination and healthy plants. a fungicide treatment and/or other chemical or physical treatment was applied.
(§5) A weighed amount, determined by the highest rate to be tested, of each test compound was placed in a 20 mL glass vial and was dissolved in 4 mL of a 97:3 v/v (volume/volume) mixture of acetone and dimethyl sulfoxide to obtain concentrated stock solutions. […] The stock solutions obtained were diluted with a 99.9:0.1 mixture of water and Tween® […] surfactant to obtain application solutions of known concentration. The solutions containing the highest concentration to be tested were prepared by diluting 2 mL aliquots of the stock solution with 15 mL of the mixture and lower concentrations were prepared by serial dilution of the stock solution. A 2.5 mL aliquot of each solution of known concentration was sprayed evenly onto the soil surface (113 sq. cm) of each seeded pot using a Cornwall 5.0 mL glass syringe fitted with a TeeJet TN-3 hollow cone nozzle to obtain thorough coverage of the soil in each pot. Control pots were sprayed in the same manner with the aqueous mixture.
(§6) The treated pots and control pots were placed in a greenhouse maintained with an approximate 15 hr photoperiod and temperatures of about 23-29° C. during the day and 22-28° C. during the night. Nutrients and water were added on a regular basis and supplemental lighting was provided with overhead metal halide 1000-Watt lamps as necessary. The water was added by top-irrigation. After 3 weeks the condition of the test plants that germinated and grew as compared with that of the untreated plants that germinated and grew was determined visually and scored on a scale of 0 to 100 percent where 0 corresponds to no injury and 100 corresponds to complete kill or no germination.

[5] = test system: morningglory (Ipomoea hederacea); assay: Preemergence herbicidal activity; conditions: Table 6 (headed Post-emergent; text: preemergence), after 3 weeks; for pest or weed control at 280 ppm: rate 280 ppm
Description: as §4, §5, §6

[6] = test system: velvetleaf (Abutilon theophrasti); assay: Preemergence herbicidal activity; conditions: Table 6 (headed Post-emergent; text: preemergence), after 3 weeks; for pest or weed control at 280 ppm: rate 280 ppm
Description: as §4, §5, §6

[7] = Amaranthus retroflexus, 504 h, read-out: % Control AMARE
[8] = Ipomoea, 504 h, read-out: % Control IPOHE
[9] = Abutilon theophrasti, 504 h, read-out: % Control ABUTH
[10] = Fallopia convolvulus, post-emergence, 336 h, rate 250 ppm, read-out: Post-emergent % Control POLCO
[11] = Stellaria media, post-emergence, 336 h, rate 250 ppm, read-out: Post-emergent % Control STEME
[12] = Xanthium strumarium, post-emergence, 336 h, rate 250 ppm, read-out: Post-emergent % Control XANST

| Compound | % Control AMARE ([4]; rate 560 ppm) [%] | % Control IPOHE ([5]; rate 560 ppm) [%] | % Control ABUTH ([6]; rate 560 ppm) [%] | Post-emergent % Control POLCO ([1]; rate 250 ppm) [%] | Post-emergent % Control STEME ([2]; rate 250 ppm) [%] | Post-emergent % Control XANST ([3]; rate 250 ppm) [%] | further results |
| --- | --- | --- | --- | --- | --- | --- | --- |
| CCCCOCCOC(=O)c1nc(Cl)cc(N)c1Cl [Compound 10, butoxyethyl 4-amino-3,6-dichloropyridine-2-carboxylate] |  |  |  |  |  |  | pest or weed control at 125 ppm ([1]; Fallopia convolvulus, post-emergence, 336 h, rate 125 ppm, read-out: Post-emergent % Control POLCO): 100%; pest or weed control at 125 ppm ([2]; Stellaria media, post-emergence, 336 h, rate 125 ppm, read-out: Post-emergent % Control STEME): 50%; pest or weed control at 125 ppm ([3]; Xanthium strumarium, post-emergence, 336 h, rate 125 ppm, read-out: Post-emergent % Control XANST): 90%; pest or weed control at 280 ppm [4, 7]: 100%; pest or weed control at 280 ppm [5, 8]: 100%; pest or weed control at 280 ppm [6, 9]: 100% |
| COC(=O)c1nc(Cl)cc(NC(C)=O)c1Cl [Compound 12, Methyl N-acetyl 4-amino-3,6-dichloropyridine-2-carboxylate] | 100 | 100 | 95 |  |  |  | Post-emergent % Control POLCO ([1]; rate 125 ppm): 100%; Post-emergent % Control STEME ([2]; rate 125 ppm): 30%; Post-emergent % Control XANST ([3]; rate 125 ppm): 90% |
| Nc1c(F)c(Br)nc(C(=O)O)c1F [Compound 16, 4-Amino-3,5-difluoro-6-bromopyridine-2-carboxylic acid] |  |  |  |  |  |  | pest or weed control at 250 ppm [1, 10]: 70%; pest or weed control at 250 ppm [2, 11]: 30%; pest or weed control at 250 ppm [3, 12]: 60%; pest or weed control at 560 ppm ([4]; Amaranthus retroflexus, 504 h, rate 560 ppm, read-out: % Control AMARE): 70%; pest or weed control at 560 ppm ([5]; Ipomoea, 504 h, rate 560 ppm, read-out: % Control IPOHE): 80%; pest or weed control at 560 ppm ([6]; Abutilon theophrasti, 504 h, rate 560 ppm, read-out: % Control ABUTH): 0% |
| COC(=O)c1nc(Br)c(Br)c(N)c1Br [Compound 18, Methyl 4-amino-3,5,6-tribromopyridine-2-carboxylate] |  |  |  |  |  |  | pest or weed control at 250 ppm [1, 10]: 75%; pest or weed control at 250 ppm [2, 11]: 90%; pest or weed control at 250 ppm [3, 12]: 85%; pest or weed control at 280 ppm [4, 7]: 80%; pest or weed control at 280 ppm [5, 8]: 30%; pest or weed control at 280 ppm [6, 9]: 98% |
| Nc1c(Cl)c(C(=O)O)nc(Cl)c1Sc1ccccc1 [Compound 24, 4-Amino-3,6-dichloro-5-phenylthiopyridine-2-carboxylate] | 20 | 30 | 50 | 50 | 50 | 60 |  |
| CC(C)Nc1cc(Cl)nc(C(=O)O)c1Cl [Compound 28, 4-N-isopropylamino-3,6-dichloropyridine-2-carboxylic acid] | 100 | 100 | 100 | 95 | 90 | 95 |  |
| C=CCNc1cc(Cl)nc(C(=O)O)c1Cl [Compound 30, 4-N-allylamino-3,6-dichloropyridine-2-carboxylic acid] | 90 | 85 | 95 | 100 | 80 | 100 |  |
| O=C(O)c1nc(Cl)cc(NCCO)c1Cl [Compound 31, 4-N-hydroxyethylamino-3,6-dichloropyridine-2-carboxylic acid] | 95 | 100 | 95 | 70 | 30 | 40 |  |
| COCCNc1cc(Cl)nc(C(=O)O)c1Cl [Compound 32, 4-N-methoxyethylamino-3,6-dichloropyridine-2-carboxylic acid] | 70 | 90 | 90 | 100 | 20 | 80 |  |
| CN(O)c1cc(Cl)nc(C(=O)O)c1Cl [Compound 34, 4-N-hydroxy-N-methyl-amino-3,6-dichloropyridine-2-carboxylic acid] | 100 | 95 | 100 |  |  |  | Post-emergent % Control POLCO ([1]; rate 125 ppm): 100%; Post-emergent % Control STEME ([2]; rate 125 ppm): 70%; Post-emergent % Control XANST ([3]; rate 125 ppm): 100% |
| CON(C)c1cc(Cl)nc(C(=O)O)c1Cl [Compound 35, 4-N-methoxy-N-methyl-3,6-dichloropyridine-2-carboxylic acid] | 95 | 85 | 90 |  |  |  | Post-emergent % Control POLCO ([1]; rate 125 ppm): 100%; Post-emergent % Control STEME ([2]; rate 125 ppm): 60%; Post-emergent % Control XANST ([3]; rate 125 ppm): 90% |
| O=C(O)c1nc(Cl)cc(-n2cccc2)c1Cl [Compound 37, 4-pyrrolo-3,6-Dichloropyridine-2-carboxylic acid] | 100 | 95 | 100 |  |  |  | Post-emergent % Control POLCO ([1]; rate 125 ppm): 90%; Post-emergent % Control STEME ([2]; rate 125 ppm): 70%; Post-emergent % Control XANST ([3]; rate 125 ppm): 90% |
| CN(C)C=Nc1cc(Cl)nc(C(=O)O)c1Cl [Compound 40, 4-N,N-Dimethylformamidino-3,6-dichloropyridine-2-carboxylic acid] | 100 | 100 | 100 | 100 | 90 | 100 |  |
| Nc1cc(Oc2ccc(Cl)c(Cl)c2)nc(C(=O)O)c1Cl [Compound 51, 4-amino-3-chloro-6-(3,4-dichlorophenoxy)-pyridine-2-carboxylic acid] |  |  |  |  |  |  | pest or weed control at 250 ppm [1, 10]: 100%; pest or weed control at 250 ppm [2, 11]: 70%; pest or weed control at 250 ppm [3, 12]: 100%; pest or weed control at 280 ppm [4, 7]: 98%; pest or weed control at 280 ppm [5, 8]: 0%; pest or weed control at 280 ppm [6, 9]: 80% |
| Nc1c(F)c(Oc2ccc(Cl)c(Cl)c2)nc(C(=O)O)c1Cl [Compound 55, 4-Amino-3-chloro-5-fluoro-6-(3,4-dichlorophenoxy)pyridine-2-carboxylic acid] |  |  |  |  |  |  | pest or weed control at 250 ppm [1, 10]: 100%; pest or weed control at 250 ppm [2, 11]: 95%; pest or weed control at 250 ppm [3, 12]: 100%; pest or weed control at 250 ppm ([4]; Amaranthus retroflexus, 504 h, rate 250 ppm, read-out: % Control AMARE): 95%; pest or weed control at 250 ppm ([5]; Ipomoea, 504 h, rate 250 ppm, read-out: % Control IPOHE): 100%; pest or weed control at 250 ppm ([6]; Abutilon theophrasti, 504 h, rate 250 ppm, read-out: % Control ABUTH): 100% |
